In a melting point compilation (Tetko et al.; mined from patent text by program, amines drawn as free bases though some values may be those of a salt) one finds melting point data, which are given here for 88 molecules.

On to `COCn1c(-c2nc3c(OC)ccc(N4CCOCC4)c3s2)nc2ccc(N3CCC(O)CC3)nc21`, for which the melting point (usually the temperature of the solid-liquid transition) lay within 120 to 130 °C. In the case of `N#Cc1c[nH]c2cc(-c3ccccc3)sc2c1=O` it was > 300 °C; in that of `CN1CCN(c2cccc3ccc(Nc4nc(Cc5ccccc5)cs4)cc23)CC1`, 157 to 160 °C.

`N#CC1CN1C(=O)Oc1ccc([N+](=O)[O-])cc1` (stereo not drawn) displayed a melting point of 100 to 104 °C. In the case of `CCc1c(O)n[nH]c1C` it was 232 to 234 °C.

`CCCCNc1cc(C(=O)O)cc(S(N)(=O)=O)c1Sc1ccc(N)cc1` came in with a melting point of 232 to 234 °C. In the case of `Nc1nc(OCC2CCCCC2)c2c(n1)=NC(=O)N=2` it was 297 °C; in that of `COc1ccccc1N1CCc2c(C)nc3c(OC)cccc3c21`, 168 to 169 °C. The molecule `CC12CCC3C(CCC4=CC(=O)CCC43C=O)C1CCC2O` (stereo not drawn) had a melting point of 125 to 127 °C. In the case of `N#Cc1c(CBr)c(C#N)c(CBr)c(C#N)c1CBr` it was 120 °C; in that of `CSc1nc(N)nc(SC)c1-c1ccc(Cl)cc1Cl`, 164 to 165 °C.

For the molecule `COCCCOc1ccc(CCCOC(=O)NS(=O)(=O)NCCOC(C)C)c(Oc2ncc(C(F)(F)F)cc2Cl)c1`, the melting point was in the range of 67.4 to 68 °C. `CCOC(=O)CC1c2ccccc2C(=O)N1c1ccccc1` (stereo not drawn) yielded a melting point of 109 to 110 °C. In the case of `OCc1cc(F)nc(F)c1` it was 66 to 67 °C; in that of `Nc1cc2c(cc1Oc1ccccc1)C(=O)CCO2`, 154 to 155 °C; in that of `O=C(O)/C=C/C(=O)/C=C/c1ccc2c(c1)OCO2`, 170 to 173 °C. To `Nc1nc(-c2ccc(F)cc2)cn1N` belongs 227 to 230 °C; to `Nc1cc(=O)n(Cc2ccc(Cl)c(C(F)(F)F)c2)[nH]1`, 132 °C.

`COc1cn(-c2cc(F)c(Br)cc2F)nc(-c2ccnn2-c2ccccc2)c1=O` returned a melting point of 211 to 213 °C. In the case of `OC(c1cc(Cl)cc(Cl)c1)c1cc(Cl)cc(Cl)c1` it was 126 °C; in that of `CCOc1ccc(-c2noc3c(Cl)c(OC)ccc23)c(F)c1`, 151 to 152 °C. On to `CN1CCCc2cc(C=C3SC(=O)NC3=O)ccc21`, for which the melting point was 254 to 257 °C. In the case of `CCc1nc2nccc(-c3cccc(C(F)(F)F)c3)n2n1` it was 132 to 134 °C; in that of `CC(C(N)=O)c1ccc2nc(-c3ccccc3)oc2c1` (stereo not drawn), 193 °C.

`CCN1C[C@@H](SCc2ccc(OC)cc2)C[C@H]1C(N)=O` yielded a melting point of 124 to 125 °C. On to `NC(=O)c1cc2cc(F)c(F)cc2o1`, for which the melting point was determined as 217 °C. Take `Cc1c(NC(=O)C(CSC(=O)OCC(C)C)Cc2ccccc2)cccc1C(=O)O` (stereo not drawn): the melting point lay within 165 to 167 °C.

In turn, `CCOC(=O)Cc1cc2ccc(O)cc2oc1=O` returned a melting point of 168 to 170 °C.

Turning to `CC(C)(C)c1cc(-c2csc3nc(-c4ccccc4)c(-c4ccccc4)n23)cc(C(C)(C)C)c1O`, the melting point fell in the range of 237 to 238 °C. To `CCc1c(Cc2[nH]c(Cc3[nH]c(C(=O)OCc4ccccc4)c(C)c3CC)c(CC)c2CC)[nH]c(C(=O)OCc2ccccc2)c1C` belongs 211 °C; to `CCC(CCNC(=O)C(C#N)=Cc1ccc(O)c(O)c1)NC(=O)C(C#N)=Cc1ccc(O)c(O)c1` (stereo not drawn), 252 °C; to `C=COCCN1CCC(Nc2nc3ccccc3n2Cc2ccc(F)cc2)CC1`, 138 °C. To `C1=C(c2nc(COc3ccc(CCCCn4cncn4)cc3)co2)CCc2ccccc21` belongs 96 to 97 °C; to `CSc1c(C(Cc2ccccc2)C(=O)O)cc(C)c2c3ccccc3n(Cc3ccccc3)c12` (stereo not drawn), 199 to 200 °C; to `CCc1nc2c(cnn2CC)c(NC2CCOCC2)c1CNC(=O)c1cccc(C(=O)NCc2ccc(C)c(-c3cccc(CN4CCNCC4)c3)c2)c1`, 135 to 138 °C.

Molecule `CCOC(=O)CS(=O)CCCCl` (stereo not drawn) registered a melting point of 46 to 47 °C. To `COc1ccc(C2(c3ccc(OC)cc3)CCN(C[C@H]3CN(C)[C@@H]4Cc5c(Br)[nH]c6cccc(c56)[C@@]4(OC)C3)CC2)cc1` belongs 167 to 172 °C; to `O=C(NC(CO)C(=O)N1CCN(CCCc2ccccc2)CC1)OCc1ccccc1` (stereo not drawn), 95 to 97 °C. In the case of `O=CNc1[nH]c(-c2ccc(F)cc2)nc1-c1ccccc1` it was 245 to 247 °C; in that of `COc1cc(OC)c2c(=O)cc(-c3cc[nH]n3)oc2c1`, 197 to 198 °C. To `CC(=O)N(CCCC(=NNC(N)=S)c1ccccc1)C(C)C` belongs 141 to 147 °C; to `O=[N+]([O-])c1ccc(OCC(O)COc2ccc([N+](=O)[O-])cc2)cc1`, 144 to 145 °C.

`COCCN1CCc2ccc(OC)c(Nc3ncc(Cl)c(N[C@@H]4CCCC[C@H]4NS(C)(=O)=O)n3)c2CC1` had a melting point of 93 to 100 °C.

Molecule `CCOC(=O)C(C#N)(CCCN(C)CCc1cccc(C(=O)OC)c1)c1ccc(OC)c(OC)c1` (stereo not drawn) showed a melting point of 89 to 91 °C. `O=C1CCC(N2Cc3c(OCc4ccc(CN5CCN(S(=O)(=O)C6CC6)CC5)cc4)cccc3C2=O)C(=O)N1` (stereo not drawn) gave a melting point of 145 to 147 °C. As to `COCCN1CN(C)C(=O)N(c2nc3c(s2)C(=O)CC(C)(C)C3)C1`, the melting point is 136 to 137 °C.

For `CC(C)(C)C(O)C(CCCCOc1ccccc1)n1cncn1` (stereo not drawn), the melting point is 79 to 81 °C. In the case of `O=C(c1[nH]c2ccc(F)cc2c1Sc1ccccn1)N1CCCC1` it was 204 to 206 °C; in that of `Cc1c(N2C[C@@H](NC(=O)C(F)(F)F)C3(CC3)C2)c(F)c(N)c2c(=O)c(C(=O)O)cn(C3CC3)c12`, 246 to 248 °C; in that of `FC(F)(F)c1ccc(NC(=S)Nc2ncccc2OCc2ccccc2)cc1`, 165 to 167 °C.

As to `O=C(CN1CCOCC1)Nc1ccc2c(c1)Cc1cn[nH]c1-2`, the melting point lay in the range of 141 to 148 °C. In turn, `C=CCOC(=O)C1=C(C)NC(C)=C(C(=O)OC)C1c1cc(Br)c(OC)c(OC)c1` (stereo not drawn) yielded a melting point of 123 to 124 °C. In the case of `Nc1c(NC=O)c(=O)[nH]c(=O)n1Cc1ccc(Cl)cc1` it was 274 to 278 °C; in that of `COc1cc(CCl)c(CCl)cc1OCc1ccccc1`, 114 to 116 °C. `O=C1CCC(N2Cc3c(CNC(=O)NCc4ccccc4)cccc3C2=O)C(=O)N1` (stereo not drawn) displayed a melting point of 304 to 306 °C. To `CC(C)C1(C#N)c2ccccc2C=CN1C(=O)c1ccccc1` (stereo not drawn) belongs 124 to 126 °C; to `CC(C)(C)c1ccc(OCC2=NC3(O)c4ccc(Cl)cc4CC3S2)cc1` (stereo not drawn), 122 to 124 °C; to `CCCCn1c(=O)c2[nH]c(N3CCCCC3)nc2n(CCCC)c1=O`, 221 °C.

As for `Nc1sc2c(c1C(=O)c1cccc(C(F)(F)F)c1)CCN(CCc1ccccc1)C2`, the melting point was in the range of 137 to 138 °C.

`CN1C(=O)C2(COc3cc4c(cc32)OCO4)c2ccccc21` (stereo not drawn) came in with a melting point of 142 to 144 °C. To `ClCc1ncc(-c2ccccc2)c2ccccc12` belongs 101 to 102 °C; to `Clc1cnc2c(C(Cl)Cl)c(Cl)ccc2c1`, 154 °C; to `CSc1c(Cl)ccc(C(=O)O)c1SC`, 130 to 131 °C. To `CCCn1cncc1CSc1ccc(NC(=O)C(F)(F)F)cc1` belongs 82 to 84 °C; to `CC1CC(NC(=O)c2ccccc2SC#N)CC(C)(C)C1` (stereo not drawn), 117 °C; to `CCCC(Cc1ccc(OCCN2CCCCCC2)cc1)(C(=O)OCC)S(=O)(=O)c1ccc(OC)cc1` (stereo not drawn), 55 °C. In the case of `c1cn(CCOc2ccc(-c3nnn[nH]3)cc2)cn1` it was 196 to 197 °C.

`COc1ccccc1Oc1c(Cl)nc(-c2ncccn2)nc1OCCO` registered a melting point of 133 to 137 °C.

As to `Cc1on(C(=O)N(c2ccc(Cl)cc2)C(C)C)c(=O)c1Cl`, the melting point fell in the range of 136 to 137 °C. Molecule `COC(=O)c1cc(O)c(N=Nc2ccccc2)c(O)c1` gave a melting point of 216 to 218 °C. With `COc1cc(Cc2cnc(NC(C)=N)nc2N)cc(OC)c1OC`, the melting point amounted to 207 °C. On to `COc1cnc(N2CCN(c3ccc([N+](=O)[O-])cc3)CC2)nc1`, for which the melting point was 212 °C. To `Cc1ccc(-c2c(CNC(=O)OC(C)(C)C)n(CC(C)C)c(=O)c3ccc(/C=C/C(=O)O)cc23)cc1` belongs 171 to 173 °C; to `CC(C)N(CC(O)COc1ccccc1C(=O)Nc1cccc2[nH]ccc12)C(C)C` (stereo not drawn), 160 °C.

In turn, `OCC1OC(n2cnc3c(NCC4Cc5cccc6cccc4c56)ncnc32)C(O)C1O` (stereo not drawn) registered a melting point of 173 to 175 °C. To `Cc1cc(C)c2c(c1C)C(C(=O)O)=C(Cl)C2=O` belongs 194 °C; to `O=C(O)c1cc2cc(Cl)ccc2nc1NC1(C(=O)O)CCc2ccccc21` (stereo not drawn), 141 to 144 °C; to `CCNC(=O)/C=C/c1cccc(Cl)c1`, 87 to 88 °C. For the molecule `COc1ccc(C(=O)O)nc1C`, the melting point stood at 183 °C. In the case of `O=C(O)c1ccc2cc(-c3cc4c(c(C56CC7CC(CC(C7)C5)C6)c3)OCO4)ccc2c1` it was 300 to 305 °C; in that of `COc1nc(N)nc(-c2ccccc2)c1-c1ccc(=O)n(C(C)C)n1`, 230 to 233 °C. To `N#CC(c1ccc(C(O)C(Cc2cccc(OC(F)(F)C(F)F)c2)NC(=O)c2cccc3c2C=CCCC3)cc1)N1CCCCC1` (racemic) belongs 152 to 154 °C; to `CSCc1c(N)c([N+](=O)[O-])cc(F)c1F`, 110 to 112 °C; to `O=C(CCl)NCCCn1cc(-c2ccccc2)c2ccccc2c1=O`, 140 °C. In the case of `COCCN1CCn2c1nc(C(=O)NCc1ccc(F)cc1)c(O)c2=O` it was 166 °C; in that of `CCOC(=O)C(=CNc1ccccc1)C(=O)OCC`, 45 to 46 °C; in that of `COc1ccc(C)cc1C(CCO)c1cc(C)ccc1OC`, 117 °C. With `Cc1ccccc1[C@@H]1CN(C(=O)C2CCN(C(=O)CO)CC2)CC[C@H]1C(=O)N(C)Cc1cc(C(F)(F)F)cc(C(F)(F)F)c1` (relative stereo), the melting point is 173 to 174 °C.
